According to patent US11160887B2, “Compositions for use in diagnosing and treating melanoma, including metastatic melanoma and methods related to same” (UNM RAINFOREST INNOVATIONS, priority 2008, dated 2021):
Like-named read-outs stand apart in the source and are kept apart here. Residues, ends and D or L forms follow the SMILES beside them.

Experiments:
[1] = biological target: T1, MC1 receptor (B16/F1 murine melanoma cells) (Mus musculus, UniProt Q01727); assay: In vitro competitive binding assay in B16/F1 cells (125I-Tyr2-NDP-MSH displacement); settings: 25° C., 2 h
T1 construct: host or cells: B16/F1 murine melanoma cells
T1 sequence (Q01727 whole entry): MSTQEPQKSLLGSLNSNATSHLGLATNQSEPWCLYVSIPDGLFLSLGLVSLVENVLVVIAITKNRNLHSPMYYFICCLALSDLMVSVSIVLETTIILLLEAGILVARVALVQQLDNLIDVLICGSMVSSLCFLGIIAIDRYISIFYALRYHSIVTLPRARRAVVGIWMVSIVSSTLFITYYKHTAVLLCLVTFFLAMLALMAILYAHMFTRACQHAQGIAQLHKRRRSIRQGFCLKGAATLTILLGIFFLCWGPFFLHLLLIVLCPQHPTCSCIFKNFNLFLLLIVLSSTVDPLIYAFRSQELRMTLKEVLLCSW
Protocol: In vitro Competitive Binding Assay: The IC50 values of DOTA-CycMSH and DOTA-GlyGlu-CycMSH were determined by using methods described previously (8). B16/F1 cells were harvested and seeded into a 24-well cell culture plate (5×10^5/well) and incubated at 37° C. overnight. After being washed once with binding media (MEM with 25 mM HEPES, pH 7.4, 0.2% BSA, 0.3 mM 1,10-phenathroline), the cells were incubated at room temperature (25° C.) for 2 h with approximately 50,000 cpm of ^125I-Tyr^2-[Nle^4, D-Phe^7]-α-MSH {NDP-MSH} (GE HealthCare, Piscataway, N.J.) in presence of increasing concentrations of DOTA-CycMSH or DOTA-GlyGlu-CycMSH in 0.3 ml of binding media. The reaction media were aspirated after incubation. Cells were rinsed with 0.5 ml of ice-cold pH 7.4, 0.2% BSA/0.01 M PBS twice and lysed in 0.5 ml of 1 N NaOH for 5 minutes. The activities in cells were measured in a gamma counter. The IC50 values for the peptides were calculated by using the Grafit software (Erithacus Software Limited, UK).
In vitro Competitive Binding Assay: The IC50 values of DOTA-GluGlu-CycMSH and Ac-GluGlu-CycMSH[DOTA] were determined by using methods described previously (12). B16/F1 cells were harvested and seeded into a 24-well cell culture plate (5×10^5/well) and incubated at 37° C. overnight. After being washed once with binding media (MEM with 25 mM HEPES, pH 7.4, 0.2% BSA, 0.3 mM 1,10-phenathroline), the cells were incubated at 25° C. for 2 h with approximately 50,000 cpm of ^125I-(Tyr^2)-NDP-MSH in the presence of increasing concentrations (10^−13 to 10^−6 M) of DOTA-GluGlu-CycMSH or Ac-GluGlu-CycMSH[DOTA] in 0.3 ml of binding media. The reaction media were aspirated after incubation. Cells were rinsed with 0.5 ml of ice-cold pH 7.4; 0.2% BSA/0.01 M PBS twice and lysed in 0.5 ml of 1 N NaOH for 5 min. The activities associated with cells were measured in a Wallac 1480 automated gamma counter (PerkinElmer, N.J.). The IC50 values of the peptides were calculated by using Prism software (GraphPad Software, La Jolla, Calif.).

[2] = biological target: T2, MC1 receptor (B16/F10 murine melanoma cells) (Mus musculus, UniProt Q01727); assay: In vitro competitive binding assay in B16/F10 cells (125I-(Tyr2)-NDP-MSH displacement); settings: 25° C., 2 h, read-out: IC50 (MC1 receptor binding affinity)
T2 construct: host or cells: B16/F10 murine melanoma cells
T2 sequence (Q01727 whole entry): as above
Protocol: In vitro Competitive Binding Assay: The IC50 value of DOTA-GlyGlu-CycMSH was determined in B16/F10 cells. The cells were harvested and seeded into a 24-well cell culture plate (5×10^5/well) and incubated at 37° C. overnight. After being washed once with binding media, the cells were incubated at 25° C. for 2 h with approximately 50,000 cpm of ^125I-(Tyr^2)-NDP-MSH in the presence of increasing concentrations of DOTA-GlyGlu-CycMSH (10^−12 to 10^−5 M) in 0.3 mL of binding media. The reaction media were aspirated after incubation. Cells were rinsed with 0.5 mL of ice-cold pH 7.4, 0.2% BSA/0.01 M PBS twice, and then lysed in 0.5 mL of 1 N NaOH for 5 min. The activities associated with the cells were measured in a gamma counter. The IC50 value was calculated by using Prism software.

[3] = Stability in mouse serum monitored by RP-HPLC; type: in vitro ADME; settings: 37° C., 24 h incubation
Protocol: Complexation of the Peptide with ^111In: ^111In-DOTA-CycMSH and ^111In-DOTA-GlyGlu-CycMSH were prepared using a 0.5 M NH4OAc-buffered solution at pH 5.4. Briefly, 50 μl of ^111InCl3 (18.5-37.0 MBq in 0.05 M HCl), 10 μl of 1 mg/ml DOTA-CycMSH or DOTA-GlyGlu-CycMSH aqueous solution and 400 μl of 0.5 M NH4OAc (pH 5.4) were added into a reaction vial and incubated at 75° C. for 45 min. After the incubation, 20 μl of 0.5% EDTA aqueous solution was added into the reaction vial to scavenge potential unbound ^111In. The radiolabeled complexes were purified to single species by Waters RP-HPLC (Milford, Mass.) on a Grace Vadyc C-18 reverse phase analytical column (Deerfield, Ill.) using a 20-minute gradient of 16-26% acetonitrile in 20 mM HCl aqueous solution with a flowrate of 1 ml/min. Purified peptide samples were purged with N2 gas for 20 minutes to remove the acetonitrile. The pH of final solution was adjusted to 7.4 with 0.1 N NaOH and normal saline for animal studies. The stability of ^111In-DOTA-CycMSH and ^111In-DOTA-GlyGlu-CycMSH was determined by incubation in mouse serum at 37° C. according to the published procedure (20) for various time periods, and monitored for degradation by RP-HPLC.

[4] = system: B16/F1 murine melanoma-bearing C57 mice; assay: Biodistribution in B16/F1 murine melanoma-bearing C57 mice; type: in vivo, mouse
Protocol: (§1) Biodistribution Studies: All the animal studies were conducted in compliance with Institutional Animal Care and Use Committee approval. The pharmacokinetics of ^111In-DOTA-CycMSH and ^111In-DOTA-GlyGlu-CycMSH were determined in B16/F1 murine melanoma-bearing C57 female mice (Harlan, Indianapolis, Ind.). C57 mice were inoculated subcutaneously with 1×10^6 B16/F1 murine melanoma cells in the right flank. After 10 days, when the weight of tumors reached approximately 0.2 g, 0.037 MBq of ^111In-DOTA-CycMSH or ^111In-DOTA-GlyGlu-CycMSH was injected into each mouse through the tail vein. Groups of 5 mice were sacrificed at 2, 4 and 24 h post-injection, and tumors and organs of interest were harvested, weighed and counted. Blood values were taken as 6.5% of the whole-body weight. The tumor uptake specificity of ^111In-DOTA-CycMSH and ^111In-DOTA-GlyGlu-CycMSH was determined by blocking tumor uptake with the co-injection of 10 μg (6.07 nmol) of unlabeled NDP-MSH, a linear α-MSH peptide analogue with picomolar affinity for the MC1 receptors present on murine melanoma cells. Statistical analysis was performed using the Student's t-test for unpaired data.

[5] = as above; type: in vivo, mouse; settings: female, C57, mouse, iv, 0.037 MBq, total radioactivity; for tissue uptake: all time points (2, 4, 24 h)
Protocol: as §1

[6] = Urinary metabolites by HPLC in B16/F1 melanoma-bearing C57 mice; type: in vivo, mouse; settings: urine, 2 h post-injection
Protocol: Urinary Metabolites of ^111In-DOTA-CycMSH and ^111In-DOTA-GlyGlu-CycMSH: One hundred microliter of HPLC purified ^111In-DOTA-CycMSH (0.74-1.11 MBq, 0.82-1.12 ng) or ^111In-DOTA-GlyGlu-CycMSH (0.74-1.11 MBq, 0.90-1.35 ng) was injected into each B16/F1 murine melanoma-bearing C57 mouse through the tail vein. At 2 h after dose administration, mice were sacrificed and the urine was collected. The radioactive metabolites in the urine were analyzed by injecting aliquots of urine into HPLC. A 20-minute gradient of 16-26% acetonitrile/20 mM HCl was used for the urine analysis.

[7] = system: endocytosis in tubular cells; settings: rat model, literature (27); cited from earlier work

CCCC[C@@H]1NC(=O)[C@@H](NC(=O)CN2CCN(CC(=O)O)CCN(CC(=O)O)CCN(CC(=O)O)CC2)CCCCNC(=O)[C@H](CC(=O)O)NC(=O)[C@H](C(C)C)NC(=O)[C@@H]2CCCN2C(=O)[C@H](CCCNC(=N)N)NC(=O)CNC(=O)[C@H](Cc2c[nH]c3ccccc23)NC(=O)[C@H](CCCNC(=N)N)NC(=O)[C@@H](Cc2ccccc2)NC(=O)[C@H](Cc2c[nH]cn2)NC(=O)[C@H](CCC(=O)O)NC1=O [DOTA-CycMSH] (HELM PEPTIDE1{[O=C(O)CN1CCN(CC(=O)O)CCN(CC(=O)[*:2])CCN(CC(=O)O)CC1].K.[Nle].E.H.[dF].R.W.G.R.P.V.D}$PEPTIDE1,PEPTIDE1,2:R3-13:R2$$$V2.0)
IC50 [1]: 1.75 nM

CCCC[C@@H]1NC(=O)[C@@H](NC(=O)[C@H](CCC(=O)O)NC(=O)[C@H](CCC(=O)O)NC(=O)CN2CCN(CC(=O)O)CCN(CC(=O)O)CCN(CC(=O)O)CC2)CCCCNC(=O)[C@H](CC(=O)O)NC(=O)[C@H](C(C)C)NC(=O)[C@@H]2CCCN2C(=O)[C@H](CCCNC(=N)N)NC(=O)CNC(=O)[C@H](Cc2c[nH]c3ccccc23)NC(=O)[C@H](CCCNC(=N)N)NC(=O)[C@@H](Cc2ccccc2)NC(=O)[C@H](Cc2c[nH]cn2)NC(=O)[C@H](CCC(=O)O)NC1=O [DOTA-GluGlu-CycMSH, 1,4,7,10-tetraazacyclododecane-1,4,7,10-tetraacetic acid-Glu-Glu-c[Lys-Nle-Glu-His-DPhe-Arg-Trp-Gly-Arg-Pro-Val-Asp]] (HELM PEPTIDE1{[O=C(O)CN1CCN(CC(=O)O)CCN(CC(=O)[*:2])CCN(CC(=O)O)CC1].E.E.K.[Nle].E.H.[dF].R.W.G.R.P.V.D}$PEPTIDE1,PEPTIDE1,4:R3-15:R2$$$V2.0)
IC50 [1]: 6.73 nM

CCCC[C@@H]1NC(=O)[C@@H](NC(=O)[C@H](CCC(=O)O)NC(=O)CNC(=O)CN2CCN(CC(=O)O)CCN(CC(=O)O)CCN(CC(=O)O)CC2)CCCCNC(=O)[C@H](CC(=O)O)NC(=O)[C@H](C(C)C)NC(=O)[C@@H]2CCCN2C(=O)[C@H](CCCNC(=N)N)NC(=O)CNC(=O)[C@H](Cc2c[nH]c3ccccc23)NC(=O)[C@H](CCCNC(=N)N)NC(=O)[C@@H](Cc2ccccc2)NC(=O)[C@H](Cc2c[nH]cn2)NC(=O)[C@H](CCC(=O)O)NC1=O [DOTA-GlyGlu-CycMSH, DOTA-Gly-Glu-c[Lys-Nle-Glu-His-DPhe-Arg-Trp-Gly-Arg-Pro-Val-Asp]] (HELM PEPTIDE1{[O=C(O)CN1CCN(CC(=O)O)CCN(CC(=O)[*:2])CCN(CC(=O)O)CC1].G.E.K.[Nle].E.H.[dF].R.W.G.R.P.V.D}$PEPTIDE1,PEPTIDE1,4:R3-15:R2$$$V2.0)
IC50 [2]: 2.43 nM
IC50 [1]: 0.9 nM

CCCC[C@@H]1NC(=O)[C@@H](NC(=O)CN2CCN(CC(=O)O)CCN(CC(=O)O)CCN(CC(=O)O)CC2)CCCCNC(=O)[C@H](CC(=O)O)NC(=O)[C@H](C(C)C)NC(=O)[C@@H]2CCCN2C(=O)[C@H](CCCNC(=N)N)NC(=O)CNC(=O)[C@H](Cc2c[nH]c3ccccc23)NC(=O)[C@H](CCCNC(=N)N)NC(=O)[C@@H](Cc2ccccc2)NC(=O)[C@H](Cc2c[nH]cn2)NC(=O)[C@H](CCC(=O)O)NC1=O [^111In-DOTA-CycMSH, metal not drawn] (HELM PEPTIDE1{[O=C(O)CN1CCN(CC(=O)O)CCN(CC(=O)[*:2])CCN(CC(=O)O)CC1].K.[Nle].E.H.[dF].R.W.G.R.P.V.D}$PEPTIDE1,PEPTIDE1,2:R3-13:R2$$$V2.0)
stability in mouse serum [3]: stable
tumor uptake with NDP co-injection as % of the tumor uptake without NDP co-injection ([4]; 10 μg (6.07 nmol) non-radiolabeled NDP co-injection, 2 h after dose administration): 3.0%
tumor uptake ([4]; 2 h post-injection, tail vein): 9.53±1.41 % ID/g
tissue uptake ([5]; bone, read-out: bone uptake): < 0.2 %ID/g
kidney uptake at 24 h ([5]; kidney, 24 h after dose administration): 16 ± 2.3 %ID/g
tissue uptake ([5]; normal organs except the kidneys, read-out: normal organ uptakes except for the kidneys): < 0.8 %ID/g
tissue uptake at 2 h ([5]; tumor, 2 h post-injection, tail vein): 9.53 ± 1.41 %ID/g
tissue uptake at 4 h ([5]; tumor, 4 h post-injection, tail vein): 7.54 ± 0.7 %ID/g
tissue uptake at 24 h ([5]; tumor, 24 h post-injection, tail vein): 2.22 ± 0.51 %ID/g
dose excreted ([5]; urine, by 2 h post-injection, read-out: injected radioactivity cleared through the urinary system): ~90%
urinary metabolites by RP-HPLC [6]: transformed to two more polar metabolites

COc1cc2c(c(OC)c1OC)-c1ccc(OC)c(=O)cc1[C@@H](NC(C)=O)CC2 [colchicine]
decrease of the renal uptake of radiolabeled peptide [7]: up to 25%
